Source: patent US20060069132A1, “Azolecarboxamide herbicides” (priority 2004, published 2006)

What was measured:
eastern black nightshade = assay: Test C pre-/postemergence herbicide test; type: in vivo, Solanum ptycanthum; details: for Plant response rating (0 = no effect, 100 = complete control), Nightshade: 62 g ai/ha; for Plant response rating (0 = no effect, 100 = complete control), Nightshade / Plant response rating, Nightshade: preemergence
In short: (§1)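 Preemergence: seeds planted and treated with compound in non-phytotoxic solvent with surfactant; postemergence: plants at 2 to 18 cm (1- to 4-leaf stage) sprayed likewise. Kept in greenhouse 12 to 14 days, then visually rated against controls, 0 (no effect) to 100 (complete control).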

yellow nutsedge = assay: Test C pre-/postemergence herbicide test; type: in vivo, Cyperus esculentus; details: for Nutsedge, Yellow plant response rating: 500 g ai/ha
In short: as §1

pigweed = assay: Test C pre-/postemergence herbicide test; type: in vivo, Amaranthus retroflexus; details: for Pigweed plant response rating: 500 g ai/ha
In short: as §1

chickweed = assay: Test C postemergence herbicide test; type: in vivo, Stellaria media
In short: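 Plants were grown to the 1- to 4-leaf stage (2–18 cm) and then treated postemergence, or grown to the 2-leaf stage for the flooded paddy test. They were held in a greenhouse for 12 to 14 days and then scored by eye against controls, where 0 is no effect and 100 is complete control.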

[1] = 125 g ai/ha, scale 0 (no effect) to 100 (complete control), visual, 12 to 14 days
[2] = 125 g ai/ha, scale 0 (no effect) to 100 (complete control), visual, 12 to 14 days, preemergence
[3] = Postemergence, 250 g ai/ha, scale 0 to 100, 0 no effect, 100 complete control
[4] = Preemergence, scale 0 to 100, 0 no effect, 100 complete control
[5] = postemergence, 125 g ai/ha, scale 0 to 100
[6] = postemergence, 62 g ai/ha, scale 0 to 100
[7] = 31 g ai/ha, preemergence, scale 0 to 100
[8] = 250 g ai/ha, scale 0 to 100 (0 no effect, 100 complete control), visual, 12 to 14 days, preemergence
[9] = postemergence, 31 g ai/ha, scale 0 to 100

SMILES	Plant response rating (0 = no effect, 100 = complete control), Nightshade (eastern black nightshade)	Plant response rating, Nightshade (eastern black nightshade; [1])	Plant response rating (0 = no effect, 100 = complete control), Nutsedge, Yellow (yellow nutsedge; 62 g ai/ha, preemergence)	Plant response rating, Nutsedge, Yellow (yellow nutsedge; [2])	Nutsedge, Yellow plant response rating (yellow nutsedge; Postemergence, scale 0 to 100)	Plant response rating, Nutsedge, Yellow (yellow nutsedge; [3])	Plant response rating, Nutsedge, Yellow (yellow nutsedge; [5])	Plant response rating, Nutsedge, Yellow (yellow nutsedge; [6])	Plant response rating (0 = no effect, 100 = complete control), Pigweed (pigweed; 62 g ai/ha, preemergence)	Plant response rating, Pigweed (pigweed; [2])	Pigweed plant response rating (pigweed; Postemergence, scale 0 to 100)	Plant response rating, Pigweed (pigweed; [3])	Plant response rating, Pigweed (pigweed; [5])	Plant response rating, Pigweed (pigweed; [6])	Plant response rating, Chickweed (chickweed; [3])	Plant response rating, Chickweed (chickweed; [5])	Plant response rating, Chickweed (chickweed; [6])	Plant response rating, Chickweed (chickweed; [9])	also measured
CCn1nc(C(C)(C)C)cc1C(=O)Nc1cccc(C(=O)NC2CC2)n1 [Compound 146]	50	60	0	0	0	0	0	0	80	95	100	100	90	80	100	80	10		Nightshade plant response rating (eastern black nightshade; Preemergence, 500 g ai/ha, scale 0 to 100, 0 no effect, 100 complete control): 100; Nutsedge, Yellow plant response rating (yellow nutsedge; [4]): 0; Pigweed plant response rating (pigweed; [4]): 100
CCn1nc(C(C)(C)C)cc1C(=O)Nc1ccc(F)c(C(=O)NCCF)c1 [Compound 60]	30	90	0	0		0	0	0	100	100		60	40	40	10	10	5	5	Plant response rating, Nightshade (eastern black nightshade; 31 g ai/ha, scale 0 to 100): 10; Plant response rating, Nightshade (eastern black nightshade; 250 g ai/ha, scale 0 to 100 (0 no effect, 100 complete control), visual, 12 to 14 days): 90; Plant response rating, Nutsedge, Yellow (yellow nutsedge; [7]): 0; Plant response rating, Nutsedge, Yellow (yellow nutsedge; [8]): 5; Plant response rating, Pigweed (pigweed; [7]): 100; Plant response rating, Pigweed (pigweed; [8]): 100
C=CCOC(=O)c1cccc(NC(=O)c2cc(C(C)(C)C)nn2CC)c1 [Compound 85]					40	20	20	10			100	100	100	100	100	100	100		Chickweed plant response rating (chickweed; Postemergence, 500 g ai/ha, scale 0 to 100): 100
CCn1nc(C(C)(C)C)cc1C(=O)Nc1cccc(C#N)c1 [Compound 139]	95	100	0	0		0	0	0	100	100		80	65	50	80	70	0	0	Plant response rating, Nutsedge, Yellow (yellow nutsedge; 31 g ai/ha, scale 0 to 100, last section of Table C, preemergence): 0
